Experiments:
[1] = target: T1, Suppressor of tumorigenicity 14 protein (Homo sapiens, UniProt Q9Y5Y6); assay: Inhibition of matriptase
T1 sequence (Q9Y5Y6 whole entry): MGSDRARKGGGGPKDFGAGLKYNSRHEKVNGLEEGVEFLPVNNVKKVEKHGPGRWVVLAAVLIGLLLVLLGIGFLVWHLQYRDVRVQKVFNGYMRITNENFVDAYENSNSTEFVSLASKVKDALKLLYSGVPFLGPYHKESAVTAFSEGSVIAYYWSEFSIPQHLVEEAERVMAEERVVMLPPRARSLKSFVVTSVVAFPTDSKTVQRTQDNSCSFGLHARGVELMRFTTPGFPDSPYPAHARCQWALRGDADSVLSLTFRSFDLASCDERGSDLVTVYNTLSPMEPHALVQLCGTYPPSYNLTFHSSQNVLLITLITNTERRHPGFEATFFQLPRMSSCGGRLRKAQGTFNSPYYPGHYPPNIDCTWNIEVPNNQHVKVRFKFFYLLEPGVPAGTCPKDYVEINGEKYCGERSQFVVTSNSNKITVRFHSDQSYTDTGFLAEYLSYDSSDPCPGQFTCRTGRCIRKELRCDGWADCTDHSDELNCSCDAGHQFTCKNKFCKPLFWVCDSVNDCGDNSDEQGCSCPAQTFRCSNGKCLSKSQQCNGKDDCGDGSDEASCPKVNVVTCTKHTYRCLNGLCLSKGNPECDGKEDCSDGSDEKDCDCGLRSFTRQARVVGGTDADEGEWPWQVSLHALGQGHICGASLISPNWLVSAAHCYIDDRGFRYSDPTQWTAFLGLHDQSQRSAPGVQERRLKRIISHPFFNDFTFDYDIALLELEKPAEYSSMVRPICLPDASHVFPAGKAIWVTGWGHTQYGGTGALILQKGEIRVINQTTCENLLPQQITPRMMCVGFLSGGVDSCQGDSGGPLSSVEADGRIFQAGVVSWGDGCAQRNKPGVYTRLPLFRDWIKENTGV

Prothrombin = Prothrombin (Homo sapiens, UniProt P00734); assay: Inhibition of thrombin
[2] = target: Urokinase-type plasminogen activator (Homo sapiens, UniProt P00749); assay: Inhibition of uPA
Plasminogen = Plasminogen (Homo sapiens, UniProt P00747); assay: Inhibition of plasmin
Chain of Plasminogen (P00747 97-580 limits assumed): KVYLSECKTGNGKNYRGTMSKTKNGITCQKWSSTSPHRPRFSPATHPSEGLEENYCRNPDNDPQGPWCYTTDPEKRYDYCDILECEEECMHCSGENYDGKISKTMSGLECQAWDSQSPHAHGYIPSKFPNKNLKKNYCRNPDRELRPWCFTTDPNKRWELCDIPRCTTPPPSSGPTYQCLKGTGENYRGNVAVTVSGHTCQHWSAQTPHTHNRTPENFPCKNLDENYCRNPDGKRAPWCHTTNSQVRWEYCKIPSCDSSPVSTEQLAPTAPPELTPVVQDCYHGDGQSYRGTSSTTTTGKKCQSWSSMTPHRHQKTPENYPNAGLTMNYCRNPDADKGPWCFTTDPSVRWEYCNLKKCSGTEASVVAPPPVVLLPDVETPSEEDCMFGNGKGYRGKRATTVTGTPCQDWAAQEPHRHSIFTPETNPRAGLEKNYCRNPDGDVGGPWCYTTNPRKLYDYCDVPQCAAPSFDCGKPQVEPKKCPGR
Chain of Plasminogen (P00747 581-810 limits assumed): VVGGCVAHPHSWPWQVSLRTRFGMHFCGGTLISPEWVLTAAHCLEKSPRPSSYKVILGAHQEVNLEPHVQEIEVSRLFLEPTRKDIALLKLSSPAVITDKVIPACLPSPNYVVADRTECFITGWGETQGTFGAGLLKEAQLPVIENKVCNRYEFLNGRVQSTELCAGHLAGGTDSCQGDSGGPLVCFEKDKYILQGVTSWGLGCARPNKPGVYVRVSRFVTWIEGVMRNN

Coagulation factor X = Coagulation factor X (Homo sapiens, UniProt P00742); assay: Inhibition of factor 10a
Chain of Coagulation factor X (P00742 41-179 limits assumed): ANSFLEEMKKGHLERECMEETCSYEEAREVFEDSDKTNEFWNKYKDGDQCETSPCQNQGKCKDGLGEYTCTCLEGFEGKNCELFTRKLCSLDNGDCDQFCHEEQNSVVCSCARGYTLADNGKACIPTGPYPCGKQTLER
Chain of Coagulation factor X (P00742 235-488 limits assumed): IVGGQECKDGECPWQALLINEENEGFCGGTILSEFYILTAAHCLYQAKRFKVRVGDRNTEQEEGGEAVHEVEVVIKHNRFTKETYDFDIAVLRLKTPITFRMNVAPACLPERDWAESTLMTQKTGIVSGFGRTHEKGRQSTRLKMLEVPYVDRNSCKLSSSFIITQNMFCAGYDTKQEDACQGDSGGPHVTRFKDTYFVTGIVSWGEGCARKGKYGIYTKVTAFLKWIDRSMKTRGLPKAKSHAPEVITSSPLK

| Ki [1] [µM] | Ki (Prothrombin) [µM] | Ki [2] [µM] | Ki (Plasminogen) [nM] | Ki (Coagulation factor X) [µM] | SMILES |
| --- | --- | --- | --- | --- | --- |
| 0.0038 | – | – | – | – | N=C(N)c1cccc(C[C@H](NS(=O)(=O)c2cccc(NC(=O)CCN)c2)C(=O)N2CCC(CCN)CC2)c1 |
| > 1000 | – | – | – | – | NCCC(=O)Nc1cccc(S(=O)(=O)N[C@@H](CCc2ccccc2)C(=O)N2CCC(CCN)CC2)c1 |
| – | > 1000 | > 1000 | 16000 | 92 | NCCC(=O)Nc1cccc(S(=O)(=O)N[C@@H](Cc2cccc(CN)c2)C(=O)N2CCC(CCN)CC2)c1 |
| 0.0016 | 0.11 | 3.6 | 230 | 0.25 | N=C(N)c1cccc(C[C@H](NS(=O)(=O)c2cccc(-c3ccc(N)nc3)c2)C(=O)N2CCC(CCN)CC2)c1 |
| 0.18 | 1.9 | 8.1 | 3500 | 20 | CCC(=O)Nc1cccc(S(=O)(=O)N[C@@H](Cc2cccc(C(=N)N)c2)C(=O)N2CCC(CCN)CC2)c1 |
| 0.041 | 1.2 | 3.2 | 2100 | 14 | CCOC(=O)Nc1cccc(S(=O)(=O)N[C@@H](Cc2cccc(C(=N)N)c2)C(=O)N2CCC(CCN)CC2)c1 |
| 0.003 | 5.1 | 3.7 | 500 | 11.2 | N=C(N)c1cccc(C[C@H](NS(=O)(=O)c2cccc(NC(=O)C3CNC3)c2)C(=O)N2CCC(CCN)CC2)c1 |
| 2.8 | 325 | > 1000 | 64800 | 430 | NCCC(=O)Nc1cccc(S(=O)(=O)N[C@@H](Cc2ccc(CN)cc2)C(=O)N2CCC(CCN)CC2)c1 |
| 0.001 | 0.46 | 3.8 | 200 | 4.4 | N=C(N)c1cccc(C[C@H](NS(=O)(=O)c2cccc(CCCCN)c2)C(=O)N2CCC(CCN)CC2)c1 |
| 8e-05 | 0.52 | 6.6 | 28 | 0.01 | N=C(N)c1cccc(C[C@H](NS(=O)(=O)c2cccc(C3CCC(N)=NC3)c2)C(=O)N2CCC(CCN)CC2)c1 (stereo partly specified) |
| 0.0067 | 2.2 | 5.2 | 460 | 8 | N=C(N)c1cccc(C[C@H](NS(=O)(=O)c2cccc(NCCCN)c2)C(=O)N2CCC(CCN)CC2)c1 |
| – | 0.31 | 8.7 | 210 | 1.7 | Cc1nccc(-c2cccc(S(=O)(=O)N[C@@H](Cc3cccc(C(=N)N)c3)C(=O)N3CCC(CCN)CC3)c2)n1 |
| – | 5.5 | 3 | 2600 | 61 | N=C(N)c1cccc(C[C@H](NS(=O)(=O)c2cccc(NC(=O)CCO)c2)C(=O)N2CCC(CCN)CC2)c1 |
| 10 | – | – | – | – | NCCC(=O)Nc1cccc(S(=O)(=O)N[C@@H](Cc2ccccc2)C(=O)N2CCC(CCN)CC2)c1 |
| > 1000 | – | – | – | – | NCCC(=O)Nc1cccc(S(=O)(=O)N[C@@H](CCCc2ccccc2)C(=O)N2CCC(CCN)CC2)c1 |
| – | 1.1 | 14 | 230 | 0.42 | COc1ccc(-c2cccc(S(=O)(=O)NC(Cc3cccc(C(=N)N)c3)C(=O)N3CCC(CCN)CC3)c2)cc1OC (racemic) |
| 0.007 | 0.04 | 10 | 120 | 0.36 | COc1ccc(-c2cccc(S(=O)(=O)NC(Cc3cccc(C(=N)N)c3)C(=O)N3CCC(CCN)CC3)c2)cc1 (racemic) |
| – | 0.033 | 6.9 | 214 | 0.63 | CCc1ccc(-c2cccc(S(=O)(=O)NC(Cc3cccc(C(=N)N)c3)C(=O)N3CCC(CCN)CC3)c2)cc1 (racemic) |
| 0.11 | 0.056 | 8.3 | 550 | 5.4 | N=C(N)c1cccc(CC(NS(=O)(=O)c2cccc(-c3ccccc3)c2)C(=O)N2CCC(CCN)CC2)c1 (racemic) |
| – | 9.8 | 129 | 776 | 55 | COc1ccc(-c2cccc(S(=O)(=O)NC(Cc3cccc(CN)c3)C(=O)N3CCC(CCN)CC3)c2)cc1 (racemic) |
| – | 0.051 | 12 | 334 | 5.6 | N=C(N)c1cccc(CC(NS(=O)(=O)c2cccc(-c3cccc(Cl)c3)c2)C(=O)N2CCC(CCN)CC2)c1 (racemic) |
| – | 0.16 | 3.7 | 110 | 1.6 | N=C(N)c1cccc(CC(NS(=O)(=O)c2cccc(-c3ccncc3)c2)C(=O)N2CCC(CCN)CC2)c1 (racemic) |
| – | 0.15 | 11 | 1000 | 3.5 | N=C(N)c1cccc(CC(NS(=O)(=O)c2cccc(-c3cccnc3)c2)C(=O)N2CCC(CCN)CC2)c1 (racemic) |
| – | 0.24 | 9.6 | 80 | 3.4 | CC(C)Oc1ccc(-c2cccc(S(=O)(=O)NC(Cc3cccc(C(=N)N)c3)C(=O)N3CCC(CCN)CC3)c2)cc1 (racemic) |
| – | 0.19 | 6.2 | 380 | 0.15 | N=C(N)c1cccc(CC(NS(=O)(=O)c2cccc(-c3ccc4[nH]ccc4c3)c2)C(=O)N2CCC(CCN)CC2)c1 (racemic) |
| – | 0.011 | 12 | 85 | 0.7 | N=C(N)c1cccc(CC(NS(=O)(=O)c2cccc(-c3ccccc3Cl)c2)C(=O)N2CCC(CCN)CC2)c1 (racemic) |
| – | 0.01 | 11 | 183 | 0.91 | N=C(N)c1cccc(CC(NS(=O)(=O)c2cccc(-c3ccc(Cl)cc3)c2)C(=O)N2CCC(CCN)CC2)c1 (racemic) |
| 0.006 | 0.45 | 8.6 | 150 | 0.66 | CCOc1ccc(-c2cccc(S(=O)(=O)NC(Cc3cccc(C(=N)N)c3)C(=O)N3CCC(CCN)CC3)c2)cc1 (racemic) |
